Measured values taken from patent US4636515A, “Non-classical topical treatment for glaucoma” (University of Iowa Research Foundation, priority 1984, dated 1987).

Experiments:
carbonic anhydrase = test: in vitro carbonic anhydrase activity, simplified method of Maren; type: biochemical
Protocol: The procedure required the use of a specialized glass reaction vessel to which was added 0.4 ml phenol red indicator (0.00125%), 0.25 to 0.30 ml heparinized blood containing 2 enzyme units of carbonic anhydrase, 0.1 ml drug solution (0.01 to 100 mg/L) and 0.1 ml of 0.255 M carbonate buffer. […] Each reagent was added at a specified time and in a specified order. […] Reaction time was the time for the uncatalyzed reaction time. […] By varying the time before adding the carbonate buffer and then determining the reaction time, the equilibration time can be accurately determined. The reaction time was averaged over three determinations. A range of drug concentrations were reacted and the concentration of drug causing 50% inhibition of enzyme (I50) read from a plot of reaction time against drug concentration. (If two enzyme units are added, then the concentration of drug yielding a reaction time corresponding to the activity of one unit is taken as the I50).

[1] = system: eye of normal adult white rabbits; test: Salted rabbit test: intraocular pressure after topical instillation; type: in vivo; details: for IOP change, Av. Chg.: 1% w/v suspension, 3 drops topical, vs placebo fellow eye, six rabbits
Protocol: In particular, an initial drop from the test formulation followed by two drops at one minute intervals are applied to one eye of each of six adult white rabbits that had been maintained on a diet containing 0.5% sodium. The treated eye was selected randomly, whereas, the fellow eye received placebo; the observer was masked. Results identified a small but significant reduction of intraocular pressure in the treated eye at 30, 60 and 120 minutes.
One drop, followed by two drops each at one minute intervals, was applied to one eye of normal adult white rabbits. Six rabbits were used in the experiment. The treated eye was selected randomly, whereas, the fellow eye received placebo. The observer was masked. The intraocular pressure (IOP) was measured with a Digilab pneumotonometer, initially and every ten minutes for 120 minutes following instillation of the anti-glaucoma agent. A drop of local anesthetic was applied just prior to making the measurement.

| time required for carbonic anhydrase to reach an equilibrium with drug (carbonic anhydrase; time between addition of drug solution and carbonate buffer) | I50 (concentration of drug causing 50% inhibition of enzyme), averaged (carbonic anhydrase; heparinized blood containing 2 enzyme units of carbonic anhydrase, 0° C.) | Structure (SMILES) | IOP change, Av. Chg. ([1]; 10 minutes) | IOP change, Av. Chg. ([1]; 20 minutes) | IOP change, Av. Chg. ([1]; 30 minutes) | IOP change, Av. Chg. ([1]; 40 minutes) | IOP change, Av. Chg. ([1]; 50 minutes) | IOP change, Av. Chg. ([1]; 60 minutes) | IOP change, Av. Chg. ([1]; 70 minutes) | IOP change, Av. Chg. ([1]; 80 minutes) | IOP change, Av. Chg. ([1]; 90 minutes) | IOP change, Av. Chg. ([1]; 100 minutes) | IOP change, Av. Chg. ([1]; 110 minutes) | IOP change, Av. Chg. ([1]; 120 minutes) | effect on intraocular pressure (IOP) in vivo (in words) ([1]; after topical administration) | lowering of IOP, statistical significance ([1]; all time intervals, 10 to 120 minutes) |
| --- | --- | --- | --- | --- | --- | --- | --- | --- | --- | --- | --- | --- | --- | --- | --- | --- |
| 10 s |  | Nc1ccc(S(N)(=O)=O)cc1 [sulfanilamide, reference compound] |  |  |  |  |  |  |  |  |  |  |  |  |  |  |
|  | 0.520 mg/L | CNS(=O)(=O)c1nnc(NC(C)=O)s1 [methyl acetazolamide, N-methyl-2-acetylamino-1,3,4-thiadiazole-5-sulfonamide] | -2 mm Hg | -1.67 mm Hg | -2.33 mm Hg | -0.40 mm Hg | -1.83 mm Hg | -1.67 mm Hg | -1.67 mm Hg | -2.14 mm Hg | -1.50 mm Hg | -2.67 mm Hg | -0.67 mm Hg | -1.5 mm Hg | able to reduce intraocular pressure | statistically significant |
